The values below come from patent US7776597B2, “Method of inducing embryonic stem cells into pancreatic cells” (Beijing Hua Yuan Bo Chuang Technology Limited, priority 2005, dated 2010).

Test [1] relates to ES-R1 cells. Briefly: RT-PCR analysis of marker gene expression in differentiated mouse ES cells. As to conditions: end of step 2. The class given is cell-based, mice. The method, then:
(§1) Step 1, to induce embryonic body (EB) formation, ES cells were dissociated with trypsin and suspended into Petri dishes (Alpha medical instrument) with 10% FBS/DMEM without LIF. After 24 to 48 hours (See FIG. 1B), EBs were collected and re-plated into 10% FBS/DMEM without LIF in 1% Matrigel (BD Biosciences) coated dishes. Two hours later, EBs began to spread onto the dishes and were cultured in 10% FBS/DMEM with 100 ng/ml activin A (Sigma) for 24 hours. Then EBs were switched to 10% FBS/DMEM for 6-8 hours as an interval. After this interval, the differentiated EB cells were cultured in 10% FBS/DMEM with 10^−6 M RA (Sigma) for another 24 hours.
(§2) Step 3, to mature the insulin producing cells, the expanded cells in step 2 were switched to DMEM/F12 (Gibco-BRL) with N2 supplement (1:100, Gibco-BRL), B27 supplement (1:50 Gibco-BRL), 1 μg/ml Laminin (Sigma), 10 ng/ml bFGF (Sigma) and 10 mM nicotinamide (Sigma) and cultured for 3-5 days (Lumelsky N, Blondel O, Laeng P, et al. Differentiation of embryonic stem cells to insulin-secreting structures similar to pancreatic islets. Science 2001; 292:1389-1394.) The morphology of cells was observed under a Nikon phase-contrast microscope (TS-100).
Total RNA was extracted by Catrimox-14 kit (TaKaRa) from the cells in step 2 or step 3 which were induced by both with and without activin A and RA or with only one of them. […]

In test [2] the test system is ES-R1 cells. Briefly: Cell cluster formation on coated dishes during three-step induction. It is filed as cell-based, mice. The note with it: dish coating matrix, third step of induction. Here is the method: as §1, §2

Consider `CC1=C(/C=C/C(C)=C/C=C/C(C)=C/C(=O)O)C(C)(C)CCC1` [RA, All-trans retinoic acid], for which, in test [1], the “marker genes expressed (RT-PCR)” value is listed as “express only hnf3β”.

On to laminin, for which, in test [2], the cell cluster formation result was “no cell clusters formed”.

B1: activin A: a member of TGF-β superfamily; disulfide-stabilized protein (protein, UniProt P08476 311-426, looked up)
Inhibin beta A chain: GLECDGKVNICCKKQFFVSFKDIGWNDWIIAPSGYHANYCEGECPSHIAGTSGSSLSFHSTVINHYRMRGHSPFANLKSCCVPTKLRPMSMLYYDDGQNIIKKDIQNMIVEECGCS
Consider B1, for which the “marker genes expressed (RT-PCR)” value in test [1] was “mainly express hnf3β and pdx-1”.
